Laboratory results taken from patent publication US10913712B2, “Tetracycline compounds” (Tetraphase Pharmaceuticals, Inc., priority 2012, dated 2021).
In brackets after ≈: the same amount, converted by molar mass.

Tested on: Burkholderia cenocepacia BC240 (cystic fibrosis isolate, MDR)
Assay: MIC assay
Assay type: cell-based
Details: Table 6; control compounds

SMILES	MIC BC 240 [µg/mL]
CN(C)c1cc(NC(=O)CNC(C)(C)C)c(O)c2c1C[C@H]1C[C@H]3[C@H](N(C)C)C(O)=C(C(N)=O)C(=O)[C@@]3(O)C(O)=C1C2=O [Tigecycline, tigecycline]	16 (≈ 27.3 µM)
CN(C)[C@@H]1C(O)=C(C(N)=O)C(=O)[C@@]2(O)C(O)=C3C(=O)c4c(O)cccc4C[C@H]3C[C@@H]12 [Sancycline, sancycline]	4 (≈ 9.65 µM)
